From PubChem BioAssay AID330 (DTP/NCI, 2004)
Where “and” joins values, the source holds several entries; their conditions need not be identical. Equal entries are not always repeated. Inconclusive results and toxic doses are left out.

Test system: P388 leukemia ip, CD2F1 mice, survival T/C
Assay: NCI In Vivo Anticancer Drug Screen. Data for tumor model P388 Leukemia (intraperitoneal) in CD2F1 (CDF1) mice
Settings: endpoint: median survival time, higher = longer survival
Outline: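 Mice carrying the transplanted tumor received test compound or vehicle. Survival was recorded in each group, and the value is the treated-group measurement divided by that of the vehicle-treated control group.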

[1] = dose: 100.0 mg/kg/injection, schedule: Q04DX002 (ip), vehicle: saline with Tween-80
[2] = dose: 200.0 mg/kg/injection, schedule: Q04DX002 (ip), vehicle: saline with Tween-80
[3] = dose: 400.0 mg/kg/injection, schedule: Q04DX002 (ip), vehicle: saline with Tween-80
[4] = dose: 60.0 mg/kg/injection, schedule: Q01DX005 (ip), vehicle: saline with Tween-80
[5] = dose: 120.0 mg/kg/injection, schedule: Q01DX005 (ip), vehicle: saline with Tween-80
[6] = dose: 240.0 mg/kg/injection, schedule: Q01DX005 (ip), vehicle: saline with Tween-80
[7] = dose: 100.0 mg/kg/injection, schedule: Q01DX001 (ip), vehicle: Klucel (hydroxypropylcellulose) (HPC)
[8] = dose: 200.0 mg/kg/injection, schedule: Q01DX001 (ip), vehicle: Klucel (hydroxypropylcellulose) (HPC)
[9] = dose: 50.0 mg/kg/injection, schedule: Q01DX005 (ip), vehicle: Klucel (hydroxypropylcellulose) (HPC)
[10] = dose: 100.0 mg/kg/injection, schedule: Q01DX005 (ip), vehicle: Klucel (hydroxypropylcellulose) (HPC)
[11] = dose: 200.0 mg/kg/injection, schedule: Q01DX005 (ip), vehicle: Klucel (hydroxypropylcellulose) (HPC)
[12] = dose: 50.0 mg/kg/injection, schedule: Q01DX009 (ip), vehicle: saline with Tween-80
[13] = dose: 100.0 mg/kg/injection, schedule: Q01DX009 (ip), vehicle: saline with Tween-80
[14] = dose: 200.0 mg/kg/injection, schedule: Q01DX009 (ip), vehicle: saline with Tween-80
[15] = dose: 50.0 mg/kg/injection, schedule: Q01DX005 (ip), vehicle: saline
[16] = dose: 100.0 mg/kg/injection, schedule: Q01DX005 (ip), vehicle: saline
[17] = dose: 200.0 mg/kg/injection, schedule: Q01DX005 (ip), vehicle: saline

CN(C)CCOc1ccc2c(c1)CCC2=O
T/C (dose: 50.0 mg/kg/injection, schedule: Q01DX009 (ip), vehicle: saline): 108 % of control | T/C (dose: 100.0 mg/kg/injection, schedule: Q01DX009 (ip), vehicle: saline): 118 % of control | T/C (dose: 200.0 mg/kg/injection, schedule: Q01DX009 (ip), vehicle: saline): 108 % of control

Cc1ccc(S(=O)(=O)OC2CCCCC2c2ccccc2)cc1 (stereo not drawn)
T/C (dose: 6.25 mg/kg/injection, schedule: Q01DX001 (ip), vehicle: Klucel (hydroxypropylcellulose) (HPC)): 102 % of control | T/C (dose: 12.5 mg/kg/injection, schedule: Q01DX001 (ip), vehicle: Klucel (hydroxypropylcellulose) (HPC)): 116 % of control and 98 % of control | T/C (dose: 25.0 mg/kg/injection, schedule: Q01DX001 (ip), vehicle: Klucel (hydroxypropylcellulose) (HPC)): 102 % of control and 90 % of control

C=CC(=O)OC1CC(O)C2(C)CC3C(=C)C(=O)OC3CC(C)C12 (stereo not drawn)
T/C [1]: 107 % of control | T/C [2]: 110 % of control | T/C [3]: 109 % of control

O=c1oc(-c2ccco2)ns1
T/C (dose: 12.5 mg/kg/injection, schedule: Q01DX009 (ip), vehicle: Klucel (hydroxypropylcellulose) (HPC)): 97 % of control | T/C (dose: 25.0 mg/kg/injection, schedule: Q01DX009 (ip), vehicle: Klucel (hydroxypropylcellulose) (HPC)): 110 % of control | T/C (dose: 50.0 mg/kg/injection, schedule: Q01DX009 (ip), vehicle: Klucel (hydroxypropylcellulose) (HPC)): 97 % of control

CC(=O)Nc1ccccc1OC(=O)NC(C)(C)C
T/C [4]: 97 % of control | T/C [5]: 100 % of control | T/C [6]: 90 % of control

CCCCN1CCN(c2ccc([N+](=O)[O-])c3no[n+]([O-])c23)CC1
T/C (dose: 8.0 mg/kg/injection, schedule: Q04DX003 (ip), vehicle: suspension in saline): 102 % of control | T/C (dose: 16.0 mg/kg/injection, schedule: Q04DX003 (ip), vehicle: suspension in saline): 99 % of control | T/C (dose: 32.0 mg/kg/injection, schedule: Q04DX003 (ip), vehicle: suspension in saline): 108 % of control

O=C1c2ccccc2C2(O)C(=O)c3ccccc3C12 (stereo not drawn)
T/C [7]: 102 % of control | T/C [8]: 105 % of control | T/C (dose: 400.0 mg/kg/injection, schedule: Q01DX001 (ip), vehicle: Klucel (hydroxypropylcellulose) (HPC)): 108 % of control

CCCSc1ccc2nc(NC(=O)OC)[nH]c2c1
T/C [4]: 106 % of control and 111 % of control | T/C [5]: 109 % of control and 112 % of control | T/C (dose: 480.0 mg/kg/injection, schedule: Q01DX005 (ip), vehicle: saline with Tween-80): 156 % of control

CC(=O)NCC(=O)c1ccc(Cl)cc1
T/C (dose: 100.0 mg/kg/injection, schedule: Q04DX003 (ip), vehicle: saline with Tween-80): 120 % of control | T/C (dose: 200.0 mg/kg/injection, schedule: Q04DX003 (ip), vehicle: saline with Tween-80): 120 % of control | T/C (dose: 400.0 mg/kg/injection, schedule: Q04DX003 (ip), vehicle: saline with Tween-80): 105 % of control

CC(C)(C)SC(=O)CC(O)(c1ccccc1)c1ccccc1
T/C (dose: 100.0 mg/kg/injection, schedule: Q04DX003 (ip), vehicle: Klucel (hydroxypropylcellulose) (HPC)): 115 % of control | T/C (dose: 200.0 mg/kg/injection, schedule: Q04DX003 (ip), vehicle: Klucel (hydroxypropylcellulose) (HPC)): 106 % of control | T/C (dose: 400.0 mg/kg/injection, schedule: Q04DX003 (ip), vehicle: Klucel (hydroxypropylcellulose) (HPC)): 95 % of control

COc1ccc2nc(C)c3c(c2c1)C(=O)N(CCC[N+]1([O-])CC[N+]([O-])(CCCN2C(=O)c4c(c5cc(OC)ccc5[n+]([O-])c4C)C2=O)CC1)C3=O (stereo not drawn)
T/C [4]: 87 % of control | T/C [5]: 89 % of control | T/C [6]: 92 % of control

N#CCS(=O)(=O)OCCCl
T/C (dose: 12.5 mg/kg/injection, schedule: Q01DX005 (ip), vehicle: saline with Tween-80): 120 % of control | T/C (dose: 37.5 mg/kg/injection, schedule: Q01DX005 (ip), vehicle: saline with Tween-80): 151 % of control

O=[N+]([O-])c1cc2c(ccc3cc(Br)ccc32)o1
T/C [9]: 87 % of control | T/C [10]: 92 % of control | T/C [11]: 92 % of control

COC(=O)Cc1onc(-c2ccccc2)c1[N+](=O)[O-]
T/C [4]: 101 % of control | T/C [5]: 101 % of control | T/C [6]: 94 % of control

Cc1cc(O)c(C(c2ccccn2)c2c(O)cc(C)[nH]c2=O)c(=O)[nH]1
T/C [12]: 102 % of control | T/C [13]: 102 % of control | T/C [14]: 105 % of control

CC(C)NCCCNc1c2ccccc2nc2cccc([N+](=O)[O-])c12
T/C (dose: 0.09 mg/kg/injection, schedule: Q01DX009 (ip), vehicle: saline): 100 % of control and 86 % of control | T/C (dose: 0.19 mg/kg/injection, schedule: Q01DX009 (ip), vehicle: saline): 100 % of control and 97 % of control | T/C (dose: 0.39 mg/kg/injection, schedule: Q01DX009 (ip), vehicle: saline): 100 % of control and 106 % of control and 92 % of control | T/C (dose: 0.79 mg/kg/injection, schedule: Q01DX009 (ip), vehicle: saline): 105 % of control and 123 % of control and 90 % of control | T/C (dose: 1.56 mg/kg/injection, schedule: Q01DX009 (ip), vehicle: saline): 109 % of control

CCCN(CCC)CC1CN(/N=C/c2ccc([N+](=O)[O-])o2)C(=O)O1 (stereo not drawn)
T/C [15]: 108 % of control | T/C [16]: 100 % of control | T/C [17]: 108 % of control

CSc1nc(NC2OC(COC(C)=O)C(OC(C)=O)C(OC(C)=O)C2OC(C)=O)c(N=C(C)C(C)=O)c(=O)[nH]1 (stereo not drawn)
T/C [4]: 100 % of control | T/C [5]: 96 % of control | T/C [6]: 86 % of control

CC(=O)C1CC(=O)c2c(O)ccc(O)c2C1 (stereo not drawn)
T/C (dose: 25.0 mg/kg/injection, schedule: Q01DX009 (ip), vehicle: water): 94 % of control | T/C (dose: 50.0 mg/kg/injection, schedule: Q01DX009 (ip), vehicle: water): 96 % of control | T/C (dose: 100.0 mg/kg/injection, schedule: Q01DX009 (ip), vehicle: water): 89 % of control | T/C (dose: 200.0 mg/kg/injection, schedule: Q01DX009 (ip), vehicle: water): 111 % of control | T/C (dose: 400.0 mg/kg/injection, schedule: Q01DX009 (ip), vehicle: water): 109 % of control

CCCCB1OB(CCCC)OB(CCCC)O1
T/C [12]: 92 % of control | T/C [13]: 105 % of control | T/C [14]: 105 % of control

C=C(C)CCN1C(=O)NC(C)(C)C1O (stereo not drawn)
T/C [15]: 100 % of control | T/C [16]: 107 % of control | T/C [17]: 101 % of control

CCOC(=O)CNC(=O)C(CSSCC(NC(=O)OCc1ccccc1)C(=O)OC)NC(=O)C(NC(=O)OCc1ccccc1)C(C)C (stereo not drawn)
T/C [9]: 100 % of control | T/C [10]: 98 % of control | T/C [11]: 95 % of control

COC(=O)/C1=C/N(C=O)CCCC2OC12C(=O)OC (stereo not drawn)
T/C [7]: 100 % of control | T/C [8]: 100 % of control

O=C1CSC(c2cccs2)N1c1nccs1 (stereo not drawn)
T/C [9]: 102 % of control | T/C [10]: 106 % of control | T/C [11]: 100 % of control

O=C1CN(C2CCCCC2Br)C(=O)CN1C1CCCCC1Br (stereo not drawn)
T/C (dose: 60.0 mg/kg/injection, schedule: Q01DX005 (ip), vehicle: Klucel (hydroxypropylcellulose) (HPC)): 97 % of control | T/C (dose: 120.0 mg/kg/injection, schedule: Q01DX005 (ip), vehicle: Klucel (hydroxypropylcellulose) (HPC)): 94 % of control | T/C (dose: 240.0 mg/kg/injection, schedule: Q01DX005 (ip), vehicle: Klucel (hydroxypropylcellulose) (HPC)): 96 % of control

CCOC(=O)CCCCCOC1CCCCO1 (stereo not drawn)
T/C [4]: 98 % of control | T/C [5]: 97 % of control | T/C [6]: 103 % of control

CCOc1cccc2c1C(O)(C#Cc1ccccc1)c1cccc(OCC)c1C2(O)C#Cc1ccccc1 (stereo not drawn)
T/C [1]: 87 % of control | T/C [2]: 87 % of control | T/C [3]: 91 % of control
